Our source for the IC50 values is patent publication US20100227858A1, “TRISUBSTITUTED PYRIMIDINE DERIVATIVES FOR THE TREATMENT OF PROLIFERATIVE DISEASES” (ASTRAZENECA AB, priority 2007, published 2010).

For orientation: IC50 means the midpoint of a concentration-inhibition curve.

recombinant mTOR, sequence (P42345 1362-2549): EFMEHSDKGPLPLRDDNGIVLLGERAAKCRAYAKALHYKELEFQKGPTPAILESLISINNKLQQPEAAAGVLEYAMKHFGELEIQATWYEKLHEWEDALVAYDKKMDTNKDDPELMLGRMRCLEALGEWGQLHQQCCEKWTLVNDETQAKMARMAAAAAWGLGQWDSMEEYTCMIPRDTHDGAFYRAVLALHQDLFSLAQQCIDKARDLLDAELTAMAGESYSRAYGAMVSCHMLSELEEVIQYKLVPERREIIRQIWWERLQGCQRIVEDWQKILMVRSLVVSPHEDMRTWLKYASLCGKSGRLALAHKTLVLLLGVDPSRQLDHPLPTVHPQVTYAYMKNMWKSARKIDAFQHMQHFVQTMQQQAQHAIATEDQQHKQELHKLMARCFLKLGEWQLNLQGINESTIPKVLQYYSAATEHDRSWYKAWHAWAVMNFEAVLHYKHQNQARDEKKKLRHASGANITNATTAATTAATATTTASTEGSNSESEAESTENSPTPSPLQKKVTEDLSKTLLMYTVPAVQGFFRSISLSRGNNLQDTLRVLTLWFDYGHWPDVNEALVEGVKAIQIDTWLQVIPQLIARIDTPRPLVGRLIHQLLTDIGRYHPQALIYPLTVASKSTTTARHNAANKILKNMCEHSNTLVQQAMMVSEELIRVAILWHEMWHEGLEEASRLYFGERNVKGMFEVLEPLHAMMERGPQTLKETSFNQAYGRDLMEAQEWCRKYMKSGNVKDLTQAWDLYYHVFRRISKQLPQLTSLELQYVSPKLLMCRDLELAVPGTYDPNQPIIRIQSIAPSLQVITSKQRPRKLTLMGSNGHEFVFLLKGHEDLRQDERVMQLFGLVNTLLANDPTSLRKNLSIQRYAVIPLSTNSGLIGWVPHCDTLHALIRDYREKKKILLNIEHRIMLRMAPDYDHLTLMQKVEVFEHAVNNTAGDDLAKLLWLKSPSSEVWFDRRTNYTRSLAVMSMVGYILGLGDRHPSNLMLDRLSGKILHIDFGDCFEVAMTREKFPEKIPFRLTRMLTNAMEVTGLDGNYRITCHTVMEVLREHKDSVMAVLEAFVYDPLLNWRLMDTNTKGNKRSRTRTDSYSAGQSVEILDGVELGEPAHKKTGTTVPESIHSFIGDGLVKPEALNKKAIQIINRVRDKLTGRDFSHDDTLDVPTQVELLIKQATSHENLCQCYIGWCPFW

This assay deals with recombinant mTOR (Homo sapiens, UniProt P42345). The assay can be described thus: In vitro mTOR kinase assay, Test (a)(i) (AlphaScreen). In kind it is biochemical. The conditions noted are these: enzyme assay; values may represent the average of two or more measurements; read-out: Test (a)(i) IC50. On the procedure:
(a)(i) In Vitro mTOR Kinase Assay
The HEK293 FLAG-tagged mTOR (1362-2549) stable cell line was routinely maintained at 37° C. with 5% CO2 up to a confluency of 70-90% in Dulbecco's modified Eagle's growth medium (DMEM; Invitrogen Limited, Paisley, UK Catalogue No. 41966-029) containing 10% heat-inactivated foetal calf serum (FCS; Sigma, Poole, Dorset, UK, Catalogue No. F0392), 1% L-glutamine (Gibco, Catalogue No. 25030-024) and 2 mg/ml Geneticin (G418 sulfate; Invitrogen Limited, UK Catalogue No. 10131-027). Following expression in the mammalian HEK293 cell line, expressed protein was purified using the FLAG epitope tag using standard purification techniques.
A 30 μl mixture of recombinant purified mTOR enzyme, 1 μM biotinylated peptide substrate (Biotin-Ahx-[…]NH2; Bachem UK Ltd), ATP (20 μM) and a buffer solution [comprising Tris-HCl pH7.4 buffer (50 mM), EGTA (0.1 mM), bovine serum albumin (0.5 mg/mL), DTT (1.25 mM) and manganese chloride (10 mM)] was agitated at room temperature for 90 minutes.
These assay solutions were incubated for 2 hours at room temperature.
Phosphorylated biotinylated peptide is formed in situ as a result of mTOR mediated phosphorylation. The phosphorylated biotinylated peptide that is associated with AlphaScreen Streptavidin donor beads forms a complex with the p70 S6 Kinase (T389) 1A5 Monoclonal Antibody that is associated with Alphascreen Protein A acceptor beads. […] Accordingly, the presence of mTOR kinase activity results in an assay signal. In the presence of an mTOR kinase inhibitor, signal strength is reduced.
A general note: Alpha assays give light when donor and acceptor beads are brought close together.
As to `C[C@H]1COCCN1c1cc(C(C)(C)S(C)(=O)=O)nc(-c2ccc3[nH]ccc3c2)n1` [Example 41, 5-[4-[(3S)-3-methylmorpholin-4-yl]-6-(2-methylsulfonylpropan-2-yl)pyrimidin-2-yl]-1H-indole], the IC50 turned out to be 0.117 µM.

`C[C@H]1COCCN1c1cc(CS(=O)(=O)c2ccccc2)nc(-c2ccc3[nH]ccc3c2)n1` [Example 45, 5-[4-(benzenesulfonylmethyl)-6-[(3S)-3-methylmorpholin-4-yl]pyrimidin-2-yl]-1H-indole]: the half-inhibitory concentration (IC50) is 0.119 µM.

On to `C[C@@H]1COCCN1c1cc(CS(C)(=O)=O)nc(-c2ccc3[nH]ccc3c2)n1` [Example 25, 5-[4-[(3R)-3-methylmorpholin-4-yl]-6-(methylsulfonylmethyl)pyrimidin-2-yl]-1H-indole], for which the IC50 amounted to 0.385 µM.

For the compound `C[C@H]1COCCN1c1cc(CS(C)(=O)=O)nc(-c2cnc3[nH]ccc3c2)n1` [Example 23, 3-[4-[(3S)-3-Methylmorpholin-4-yl]-6-(methylsulfonylmethyl)pyrimidin-2-yl]-5,7-diazabicyclo[4.3.0]nona-1,3,5,8-tetraene], the concentration for half-maximal inhibition (IC50) is 0.0377 µM.

With `COc1cc(C(=O)Nc2cc(N3CCOC[C@@H]3C)nc(N3CCOC[C@@H]3C)n2)ccn1` [Example 7, N-[2,6-Bis[(3S)-3-methylmorpholin-4-yl]pyrimidin-4-yl]-2-methoxy-pyridine-4-carboxamide], the IC50 worked out at 2.84 µM.

Take `COc1ccccc1C(=O)Nc1nc(N2CCOC[C@@H]2C)cc(N2CCOC[C@@H]2C)n1` [Example 14, N-[4,6-Bis[(3S)-3-methylmorpholin-4-yl]pyrimidin-2-yl]-2-methoxy-benzamide]: the half-maximal inhibitory concentration (IC50) worked out at 0.886 µM.

Take `COc1ccc(C(=O)Nc2cc(N3CCOC[C@@H]3C)nc(N3CCOC[C@@H]3C)n2)cc1F` [Example 11, N-[2,6-Bis[(3S)-3-methylmorpholin-4-yl]pyrimidin-4-yl]-3-fluoro-4-methoxy-benzamide]: the IC50 is 3.58 µM.

On to `C[C@H]1COCCN1c1cc(CS(C)(=O)=O)nc(-c2cnc(-c3cn[nH]c3)s2)n1` [Example 34, 4-[(3S)-3-Methylmorpholin-4-yl]-6-(methylsulfonylmethyl)-2-[2-(1H-pyrazol-4-yl)-1,3-thiazol-5-yl]pyrimidine], for which the 50% inhibitory concentration (IC50) came to 0.573 µM.

On to `COc1ccc(C(=O)Nc2nc(N3CCOC[C@@H]3C)cc(N3CCOC[C@@H]3C)n2)cn1` [Example 6, N-[4,6-Bis[(3S)-3-methylmorpholin-4-yl]pyrimidin-2-yl]-6-methoxy-pyridine-3-carboxamide], for which the IC50 was 2.68 µM.

Regarding `C[C@H]1COCCN1c1cc(C(C)(C)S(C)(=O)=O)nc(-c2cnc3[nH]ccc3c2)n1` [Example 40, 3-[4-[(3S)-3-Methylmorpholin-4-yl]-6-(2-methylsulfonylpropan-2-yl)pyrimidin-2-yl]-5,7-diazabicyclo[4.3.0]nona-1,3,5,8-tetraene], the half-inhibitory concentration (IC50) was found to be 0.588 µM.

Regarding `CCC(C)S(=O)(=O)Cc1cc(N2CCOC[C@@H]2C)nc(-c2ccc3[nH]ccc3c2)n1` (stereo partly drawn) [Example 26, 5-[4-(Butan-2-ylsulfonylmethyl)-6-[(3S)-3-methylmorpholin-4-yl]pyrimidin-2-yl]-1H-indole], the half-inhibitory concentration (IC50) was 1.38 µM.

`C[C@H]1COCCN1c1cc(CS(C)(=O)=O)nc(-c2ccc3[nH]ccc3c2)n1` [Example 24]: the IC50 is 0.303 µM.

Consider `COc1cccc(C(=O)Nc2nc(N3CCOC[C@@H]3C)cc(N3CCOC[C@@H]3C)n2)c1` [Example 5, N-[4,6-Bis[(3S)-3-methylmorpholin-4-yl]pyrimidin-2-yl]-3-methoxy-benzamide], for which the concentration for half-maximal inhibition (IC50) came to 0.364 µM.

On to `COc1ccc(C(=O)Nc2cc(N3CCOC[C@@H]3C)nc(N3CCOC[C@@H]3C)n2)cc1` [Example 19, N-[2,6-Bis[(3S)-3-methylmorpholin-4-yl]pyrimidin-4-yl]-4-methoxy-benzamide], for which the 50% inhibitory concentration (IC50) worked out at 0.181 µM.

As for `C[C@H]1COCCN1c1cc(CS(C)(=O)=O)nc(-c2ccc3[nH]cc(C(N)=O)c3c2)n1` [Example 33, 5-[4-[(3S)-3-Methylmorpholin-4-yl]-6-(methylsulfonylmethyl)pyrimidin-2-yl]-1H-indole-3-carboxamide], the IC50 worked out at 0.154 µM.

As to `C[C@H]1COCCN1c1cc(CS(C)(=O)=O)nc(-c2ccc(-c3cn[nH]c3)cc2)n1` [Example 31, 4-[(3S)-3-Methylmorpholin-4-yl]-6-(methylsulfonylmethyl)-2-[4-(1H-pyrazol-4-yl)phenyl]pyrimidine], the concentration for half-maximal inhibition (IC50) came out at 0.99 µM.

In the case of `C[C@H]1COCCN1c1cc(C(C)(C)S(C)(=O)=O)nc(-c2ccc3cc[nH]c3c2)n1` [Example 43, 6-[4-[(3S)-3-methylmorpholin-4-yl]-6-(2-methylsulfonylpropan-2-yl)pyrimidin-2-yl]-1H-indole], the IC50 stood at 0.88 µM.

In the case of `COc1cccc(C(=O)Nc2cc(N3CCOC[C@@H]3C)nc(N3CCOC[C@@H]3C)n2)c1` [Example 3, N-[2,6-Bis[(3S)-3-methylmorpholin-4-yl]pyrimidin-4-yl]-3-methoxy-benzamide], the IC50 turned out to be 0.234 µM.

On to `CC(=O)Nc1ccc(C(=O)Nc2cc(N3CCOC[C@@H]3C)nc(N3CCOC[C@@H]3C)n2)cn1` [Example 8, 6-Acetamido-N-[2,6-bis[(3S)-3-methylmorpholin-4-yl]pyrimidin-4-yl]pyridine-3-carboxamide], for which the concentration for half-maximal inhibition (IC50) was determined as 1.78 µM.

With `C[C@H]1COCCN1c1cc(NC(=O)c2ccc(NC(=O)Nc3ccccc3)cc2)nc(N2CCOC[C@@H]2C)n1` [Example 17, N-[2,6-Bis[(3S)-3-methylmorpholin-4-yl]pyrimidin-4-yl]-4-(phenylcarbamoylamino)benzamide], the IC50 was 9.39 µM.

For the compound `CC(=O)Nc1ccc(C(=O)Nc2nc(N3CCOC[C@@H]3C)cc(N3CCOC[C@@H]3C)n2)cn1` [Example 13, 6-Acetamido-N-[4,6-bis[(3S)-3-methylmorpholin-4-yl]pyrimidin-2-yl]pyridine-3-carboxamide], the IC50 is 1.58 µM.

Consider `C[C@H]1COCCN1c1cc(CS(=O)(=O)c2ccccc2)nc(-c2cccc3[nH]ccc23)n1` [Example 44, 4-[4-(Benzenesulfonylmethyl)-6-[(3S)-3-methylmorpholin-4-yl]pyrimidin-2-yl]-1H-indole], for which the IC50 was determined as 0.366 µM.

Regarding `COc1ccc(C(=O)Nc2nc(N3CCOC[C@@H]3C)cc(N3CCOC[C@@H]3C)n2)cc1C(F)(F)F` [Example 4, N-[4,6-Bis[(3S)-3-methylmorpholin-4-yl]pyrimidin-2-yl]-4-methoxy-3-(trifluoromethyl)benzamide], the 50% inhibitory concentration (IC50) was determined as 0.442 µM.

With `C[C@@H]1CN(c2nc(CS(C)(=O)=O)cc(N3CCOC[C@@H]3C)n2)C[C@H](C)O1` [Example 20, 2-[(2R,6S)-2,6-Dimethylmorpholin-4-yl]-4-[(3S)-3-methylmorpholin-4-yl]-6-(methylsulfonylmethyl)pyrimidine], the half-maximal inhibitory concentration (IC50) is 1.65 µM.

With `C[C@H]1COCCN1c1cc(CS(=O)(=O)c2ccccc2)nc(-c2ccc3cc[nH]c3c2)n1` [Example 47, 6-[4-(benzenesulfonylmethyl)-6-[(3S)-3-methylmorpholin-4-yl]pyrimidin-2-yl]-1H-indole], the IC50 came to 0.512 µM.

With `COc1ccc(C(=O)Nc2nc(N3CCOC[C@@H]3C)cc(N3CCOC[C@@H]3C)n2)cc1F` [Example 16, N-[4,6-Bis[(3S)-3-methylmorpholin-4-yl]pyrimidin-2-yl]-3-fluoro-4-methoxy-benzamide], the IC50 is 2.47 µM.

As for `CC(C)S(=O)(=O)Cc1cc(N2CCOC[C@H]2C)nc(-c2ccc3[nH]ccc3c2)n1` [Example 28, 5-[4-[(3R)-3-methylmorphlin-4-yl]-6-(propan-2-ylsulfonylmethyl)pyrimidin-2-yl]-1H-indole], the half-maximal inhibitory concentration (IC50) was determined as 0.626 µM.

For the compound `C[C@H]1COCCN1c1cc(CS(C)(=O)=O)nc(-c2cccc(-c3cn[nH]c3)c2)n1` [Example 32, 4-[(3S)-3-Methylmorpholin-4-yl]-6-(methylsulfonylmethyl)-2-[3-(1H-pyrazol-4-yl)phenyl]pyrimidine], the IC50 was found to be 0.437 µM.

Turning to `C[C@H]1COCCN1c1cc(C(C)(C)S(C)(=O)=O)nc(-c2ccc3[nH]cnc3c2)n1` [Example 39, 5-[4-[(3S)-3-Methylmorpholin-4-yl]-6-(2-methylsulfonylpropan-2-yl)pyrimidin-2-yl]-1H-benzoimidazole], the half-maximal inhibitory concentration (IC50) was 0.192 µM.

`C[C@H]1COCCN1c1cc(CS(C)(=O)=O)nc(-c2ccc3[nH]c(C(N)=O)cc3c2)n1` [Example 37, 5-[4-[(3S)-3-Methylmorpholin-4-yl]-6-(methylsulfonylmethyl)pyrimidin-2-yl]-1H-indole-2-carboxamide]: the concentration for half-maximal inhibition (IC50) was determined as 0.336 µM.

`CCS(=O)(=O)Cc1cc(N2CCOC[C@H]2C)nc(-c2ccc3[nH]ccc3c2)n1` [Example 29, 5-[4-(ethylsulfonylmethyl)-6-[(3R)-3-methylmorpholin-4-yl]pyrimidin-2-yl]-1H-indole]: the half-maximal inhibitory concentration (IC50) is 0.351 µM.

For the compound `C[C@H]1COCCN1c1cc(CS(C)(=O)=O)nc(N2CCOCC2)n1` [Example 22, 4-[(3S)-3-methylmorpholin-4-yl]-6-(methylsulfonylmethyl)-2-morpholin-4-yl-pyrimidine], the 50% inhibitory concentration (IC50) is 1.7 µM.
